Test results: US20230167073A1 (Teijin Pharma Limited, priority 2020, published 2023)

What follows are compounds tested against T1, Human TRPC6 (Homo sapiens, UniProt Q9Y210) (assay: Evaluation of TRPC6 channel inhibitory activity (1), FLIPR Calcium 5 Assay Kit, OAG stimulation (Compound Nos. 1-1293)). Conditions: Human TRPC6 stably-expressing cells, OAG 30 μM, FLIPR Calcium 5 Assay Kit; read-out: Inhibitory activity (pIC50 class) (converted).
T1 construct: expressed in transfected cells
T1 sequence (Q9Y210 1-931): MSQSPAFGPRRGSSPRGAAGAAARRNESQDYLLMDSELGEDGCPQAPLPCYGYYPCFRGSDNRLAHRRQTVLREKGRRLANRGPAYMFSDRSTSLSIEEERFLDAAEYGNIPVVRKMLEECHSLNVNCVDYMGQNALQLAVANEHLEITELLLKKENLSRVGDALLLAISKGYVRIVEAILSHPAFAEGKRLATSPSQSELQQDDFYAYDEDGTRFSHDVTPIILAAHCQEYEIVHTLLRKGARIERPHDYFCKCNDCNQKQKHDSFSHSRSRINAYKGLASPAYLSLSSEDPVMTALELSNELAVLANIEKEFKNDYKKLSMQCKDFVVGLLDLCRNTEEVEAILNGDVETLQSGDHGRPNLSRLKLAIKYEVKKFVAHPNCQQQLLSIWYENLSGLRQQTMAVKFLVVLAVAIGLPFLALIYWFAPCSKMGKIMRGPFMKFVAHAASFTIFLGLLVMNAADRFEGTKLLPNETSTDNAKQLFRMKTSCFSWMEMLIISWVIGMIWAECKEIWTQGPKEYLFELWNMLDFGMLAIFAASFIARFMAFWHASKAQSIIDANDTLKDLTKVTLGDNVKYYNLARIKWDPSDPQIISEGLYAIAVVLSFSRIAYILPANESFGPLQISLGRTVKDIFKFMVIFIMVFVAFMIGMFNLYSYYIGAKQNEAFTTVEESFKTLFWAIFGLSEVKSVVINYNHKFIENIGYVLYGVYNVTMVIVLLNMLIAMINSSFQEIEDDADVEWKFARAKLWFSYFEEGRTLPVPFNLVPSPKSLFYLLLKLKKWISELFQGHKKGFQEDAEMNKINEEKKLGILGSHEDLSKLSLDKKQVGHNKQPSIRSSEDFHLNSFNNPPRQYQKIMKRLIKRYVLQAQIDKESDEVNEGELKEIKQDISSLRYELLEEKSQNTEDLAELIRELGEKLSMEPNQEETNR
Assay type: cell-based
Procedure, shortened: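 Readout is pIC50 from four-parameter logistic fitting of inhibition of the OAG-evoked (30 μM final) fluorescence calcium signal. Human TRPC6 stable cells are dye-loaded with probenecid, and compound is applied 20 min ahead of agonist.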

Compound | IC50 [nM]
Cn1nc(-c2ccccc2)cc1Oc1cc(C#N)ccc1-c1ccc(CCN)nn1 [compound 312, 4-[6-(2-aminoethyl)pyridazin-3-yl]-3-(2-methyl-5-phenylpyrazol-3-yl)oxybenzonitrile] | < 10
Cn1nc(-c2ccccc2)cc1Oc1cc(Cl)ncc1-c1ccc(CN)cn1 [compound 1291, [6-[6-chloro-4-(2-methyl-5-phenylpyrazol-3-yl)oxypyridin-3-yl]pyridin-3-yl]methanamine] | > 1000
Cc1nc(Oc2cc(C#N)ccc2-n2cc([C@@H](O)CN)cn2)cc(-c2ccccc2)n1 [Compound 170, 4-[4-[(1R)-2-Amino-1-hydroxyethyl]pyrazol-1-yl]-3-(2-methyl-6-phenylpyrimidin-4-yl)oxybenzonitrile] | < 10
N#Cc1ccc(-c2ncc(CCN)cn2)c(C(=O)c2cnn(-c3ncccn3)c2)c1 [compound 1052, 4-[5-(2-aminoethyl)pyrimidin-2-yl]-3-(1-pyrimidin-2-ylpyrazole-4-carbonyl)benzonitrile] | 10 to 1000
Cn1nc(N2CCCC2)cc1Oc1cc(F)ccc1-c1ccc(CCN)cn1 [compound 980, 2-[6-[4-fluoro-2-(2-methyl-5-pyrrolidin-1-ylpyrazol-3-yl)oxyphenyl]pyridin-3-yl]ethanamine] | < 10
Cc1c(Oc2cc(F)ccc2-c2ncc(CCN)cn2)cnn1C(C)C [compound 984, 2-[2-[4-fluoro-2-(5-methyl-1-propan-2-ylpyrazol-4-yl)oxyphenyl]pyrimidin-5-yl]ethanamine] | 10 to 1000
Cn1nc(C2CCOCC2)cc1Oc1cc(F)ccc1-c1ncc(CCN)cn1 [compound 1009, 2-[2-[4-fluoro-2-[2-methyl-5-(oxan-4-yl)pyrazol-3-yl]oxyphenyl]pyrimidin-5-yl]ethanamine] | 10 to 1000
N#Cc1ccc(-c2ncc(CN)cn2)c(Oc2nnc(N3CCC3)s2)c1 [compound 720, 4-[5-(aminomethyl)pyrimidin-2-yl]-3-[[5-(azetidin-1-yl)-1,3,4-thiadiazol-2-yl]oxy]benzonitrile] | > 1000
CC(C)Cc1cc(Oc2cc(C#N)ccc2-c2ccc(CCN)cc2)n(C)n1 [Compound 211, 4-[4-(2-aminoethyl)phenyl]-3-[2-methyl-5-(2-methylpropyl)pyrazol-3-yl]oxybenzonitrile] | < 10
Cn1nc(C2CCOCC2)cc1Oc1cc(C#N)ccc1-c1ccc(C(N)CO)cn1 (centres unmarked) [compound 514, 4-[5-(1-amino-2-hydroxyethyl)pyridin-2-yl]-3-[2-methyl-5-(oxan-4-yl)pyrazol-3-yl]oxybenzonitrile] | 10 to 1000
N#Cc1ccc(-c2ccc(CCN)cc2)c(Cn2cnc(-n3ccnn3)c2)c1 [compound 1122, 4-[4-(2-aminoethyl)phenyl]-3-[[4-(triazol-1-yl)imidazol-1-yl]methyl]benzonitrile] | > 1000
N#Cc1ccc(-c2ncc(CCN)cn2)c(Oc2nnc(N3CCCC3)s2)c1 [compound 726, 4-[5-(2-aminoethyl)pyrimidin-2-yl]-3-[(5-pyrrolidin-1-yl-1,3,4-thiadiazol-2-yl)oxy]benzonitrile] | 10 to 1000
N#Cc1ccc(-c2ncc(CCN)cn2)c(Oc2cnn(-c3ccccn3)c2)c1 [compound 912, 4-[5-(2-aminoethyl)pyrimidin-2-yl]-3-(1-pyridin-2-ylpyrazol-4-yl)oxybenzonitrile] | < 10
Cc1cc(Oc2cc(C#N)ccc2-c2ccc(C(N)C(=O)O)cn2)cc(N2CCOCC2)n1 (centres unmarked) [compound 410, 2-amino-2-[6-[4-cyano-2-(2-methyl-6-morpholin-4-ylpyridin-4-yl)oxyphenyl]pyridin-3-yl]acetic acid] | 10 to 1000
Cc1nc(Oc2cc(C#N)ccc2-c2ncc(CCN)cn2)cc(-c2ccccc2C#N)n1 [Compound 295, 4-[5-(2-aminoethyl)pyrimidin-2-yl]-3-[6-(2-cyanophenyl)-2-methylpyrimidin-4-yl]oxybenzonitrile] | < 10
Cc1nc(C2CCOCC2)cn1Cc1cc(C#N)ccc1-c1ccc(CN)cn1 [compound 1163, 4-[5-(aminomethyl)pyridin-2-yl]-3-[[2-methyl-4-(oxan-4-yl)imidazol-1-yl]methyl]benzonitrile] | 10 to 1000

Compound | IC50 [nM]
Cn1nc(-c2ccccc2)cc1Oc1cc(C#N)ccc1-c1ccc(C(F)(F)CN)cn1 [compound 308, 4-[5-(2-amino-1,1-difluoroethyl)pyridin-2-yl]-3-(2-methyl-5-phenylpyrazol-3-yl)oxybenzonitrile] | 10 to 1000
N#Cc1ccc(-c2ccc(CCN)cn2)c(C(=O)c2nnc(N3CCOCC3)s2)c1 [compound 1094, 4-[5-(2-aminoethyl)pyridin-2-yl]-3-(5-morpholin-4-yl-1,3,4-thiadiazole-2-carbonyl)benzonitrile] | 10 to 1000
Cn1nc(Oc2cc(C#N)ccc2-c2ccc(CCN)cn2)cc1N1CCOCC1 [compound 557, 4-[5-(2-aminoethyl)pyridin-2-yl]-3-(1-methyl-5-morpholin-4-ylpyrazol-3-yl)oxybenzonitrile] | 10 to 1000
Cc1cc(Oc2cc(C#N)ccc2-c2ncc([C@H](O)CN)cn2)cc(-c2nc(C)cs2)n1 [compound 600, 4-[5-[(1S)-2-amino-1-hydroxyethyl]pyrimidin-2-yl]-3-[2-methyl-6-(4-methyl-1,3-thiazol-2-yl)pyridin-4-yl]oxybenzonitrile] | 10 to 1000
Cn1nc(C#N)cc1Oc1cc(C#N)ccc1-c1ccc(CCN)cn1 [compound 964, 5-[2-[5-(2-aminoethyl)pyridin-2-yl]-5-cyanophenoxy]-1-methylpyrazole-3-carbonitrile] | 10 to 1000
Cc1nc(Oc2cc(C#N)ccc2-c2ccc([C@H](O)CN)cn2)cc(-c2ncc(C)s2)n1 [compound 606, 4-[5-[(1S)-2-amino-1-hydroxyethyl]pyridin-2-yl]-3-[2-methyl-6-(5-methyl-1,3-thiazol-2-yl)pyrimidin-4-yl]oxybenzonitrile] | 10 to 1000
CC(C)n1nc(-c2ccccc2)cc1Oc1cc(C#N)ccc1-c1ccc([C@@H](O)CN)cn1 [compound 383, 4-[5-[(1R)-2-amino-1-hydroxyethyl]pyridin-2-yl]-3-(5-phenyl-2-propan-2-ylpyrazol-3-yl)oxybenzonitrile] | < 10
Cn1nc(-c2ccc(F)cc2)cc1Oc1cc(C#N)ccc1-c1ccc(CCN)cn1 [Compound 185, 4-[5-(2-aminoethyl)pyridin-2-yl]-3-[5-(4-fluorophenyl)-2-methylpyrazol-3-yl]oxybenzonitrile] | < 10
Cc1cc(Oc2cc(C#N)ccc2-c2ncc(CN)cn2)cc(NC2CC2)n1 [compound 646, 4-[5-(aminomethyl)pyrimidin-2-yl]-3-[2-(cyclopropylamino)-6-methylpyridin-4-yl]oxybenzonitrile] | 10 to 1000
CC(C)(N)Cc1ccc(-c2ccc(C#N)cc2Oc2cnnc(N3CCOCC3)c2)cc1 [compound 297, 4-[4-(2-amino-2-methylpropyl)phenyl]-3-(6-morpholin-4-ylpyridazin-4-yl)oxybenzonitrile] | 10 to 1000
CC(C)c1cc(Oc2cc(F)ccc2-c2ncc(CN)cn2)n(C)n1 [compound 1012, [2-[4-fluoro-2-(2-methyl-5-propan-2-ylpyrazol-3-yl)oxyphenyl]pyrimidin-5-yl]methanamine] | < 10
Cn1nc(N2CCOCC2)cc1Oc1cc(C#N)ccc1-c1ncc(CCN)cn1 [compound 771, 4-[5-(2-aminoethyl)pyrimidin-2-yl]-3-(2-methyl-5-morpholin-4-ylpyrazol-3-yl)oxybenzonitrile] | 10 to 1000
Cn1nc(N2CCCC2)cc1Cc1cc(C#N)ccc1-c1ncc(CCN)cn1 [compound 1211, 4-[5-(2-aminoethyl)pyrimidin-2-yl]-3-[(2-methyl-5-pyrrolidin-1-ylpyrazol-3-yl)methyl]benzonitrile] | < 10
NCCc1cnc(-c2ccc(F)cc2Oc2cnn(CC(F)(F)F)c2)nc1 [compound 1019, 2-[2-[4-fluoro-2-[1-(2,2,2-trifluoroethyl)pyrazol-4-yl]oxyphenyl]pyrimidin-5-yl]ethanamine] | 10 to 1000
Cc1nc(Oc2cc(C#N)ccc2-c2ccc(CN)cn2)cc(N(C)C)n1 [compound 659, 4-[5-(aminomethyl)pyridin-2-yl]-3-[6-(dimethylamino)-2-methylpyrimidin-4-yl]oxybenzonitrile] | 10 to 1000
N#Cc1ccc(-c2ccc(CN)cc2)c(Nc2cc(-c3ccccc3)ncn2)c1 [Compound 1, 4-[4-(aminomethyl)phenyl]-3-[(6-phenylpyrimidin-4-yl)amino]benzonitrile] | 10 to 1000
